Results as given in PMC2363502.
Entries after “also recorded” stand apart in the source; their conditions may differ. Read-outs that look alike come from different tables or passages of the source.

How the values were obtained:
[1] = set-up: method as in unpublished; settings: rat, basis of starting dose; ref unpublished; cited from earlier work
[2] = test system: human HCT-116 tumour cell line; set-up: method as in data on file; settings: subcutaneous HCT-116 in nude mice; ref data on file; cited from earlier work
[3] = phase I pharmacokinetics in plasma and urine; assay type: in vivo, human
Procedure: (§1) Preclinical testing confirmed promising antiproliferative activity. […] Physical examination was performed weekly. […] N-Acetyl-SPERMINE SSAT SSAT […] Analysis was descriptive only. […] Patient characteristics are described in Table 1. […] Three patients completed the full six cycles of treatment. Of these, two received the combination 5FU/SAM486A from cycle 3 onwards. Five patients recorded a best response of stable disease. Of these, three received the combination 5FU/SAM486A from cycle 3 onwards (see below).

[4] = test system: variety of different tumour cell lines; set-up: method as in H Mett, unpublished data; settings: including multi-drug-resistant and highly metastatic variants; ref H Mett, unpublished data; cited from earlier work
[5] = test system: xenograft or orthotopic tumour; set-up: method as in earlier work; settings: 5- 25 mg kg-1 day-1 intraperitoneally, ref Regenass et al, 1994, Dorhout et al, 1995, Gutman et al, Manni et al, Delworth et al, 1997, Svensson et al, Mi et al, 1998; cited from earlier work
L-1210 leukaemia = test system: L-1210 leukaemia; set-up: method as in Dorhout et al, 1995; settings: treated L-1210 leukaemia-bearing animals; ref Dorhout et al, 1995; cited from earlier work
solid tumours = test: phase I clinical efficacy (UICC tumour response, markers, FDG-PET); assay type: in vivo, human
Procedure: as §1

[6] = set-up: method as in data on file; settings: rats and dogs; ref data on file; cited from earlier work
[7] = short-term single or repeat bolus injections of high doses; preclinical background, ref not given; cited from earlier work
[8] = test system: polyamine pools and SAMDC activity in leukocytes; test: polyamines and SAMDC activity in peripheral blood leukocytes; assay type: in vivo, human
Procedure: as §1

[9] = test system: S-adenosylmethionine decarboxylase (SAMDC); settings: cited from earlier work
tumour = test system: tumour; set-up: method as in Gschaidmeier et al, 1999, O'Reilly et al, 2000; settings: in vitro and in vivo; ref Gschaidmeier et al, 1999, O'Reilly et al, 2000; cited from earlier work

N=C(N)c1cccc2c1CCC2=NN=C(N)N [SAM486A]
no-adverse-effect level [1]: 0.06 mg/kg/day
drug level in tumours compared to plasma elimination profile [2]: marked accumulation of the drug was seen in tumours
mean terminal elimination t1/2 ([3]; all patients included in the analysis, standard deviation 23.1 h): 48.6 h
fraction of total drug administered excreted in urine ([3]; day 1): Approximately 3%
plasma SAM486A concentrations ([3]; first 10 patients at lowest dose levels, significant portions of sampling interval): below the limit of quantitation
terminal half-life (approximate) ([3]; plasma, patients): approximately 2 days
growth inhibitory IC50 [4]: micromolar range
effect on tumour growth [5]: inhibited tumour growth
SAMDC activity and putrescine pools in tumours (L-1210 leukaemia): decreased SAMDC activity and elevated putrescine pools
objective tumour response (solid tumours; 39 patients): No objective remission; also recorded: No complete or partial responses
patients with stable disease as best response (solid tumours; 39 patients): five
tumour markers (CEA, CA 15.3) post-baseline (solid tumours; six evaluable patients): No trends towards decreases
FDG-PET result after first 5-day infusion (solid tumours; two patients, 400 mg m-2 cycle-1): stable disease at best
metabolism and excretion [6]: hardly metabolized and predominantly renally excreted
plasma clearance and distribution [6]: multi-exponential with extensive distribution outside the plasma compartment
acute toxicity findings [7]: acute cardiovascular and respiratory
evaluable patients with marginal trend to increased SAMDC activity ([8]; 400 mg m-2 cycle-1 and above): eight of 13
evaluable patients with trend to increased putrescine ([8]; 400 mg m-2 cycle-1 and above): 10 of the 11
evaluable patients with trend to increased putrescine ([8]; 3-200 mg m-2 cycle-1): six of the 12
evaluable patients with marginal trend to increased SAMDC activity ([8]; doses up to 200 mg m-2 cycle-1): nine of 18
expected concomitant decrease in spermidine and spermine ([8]; peripheral blood leukocytes): could not be detected
fold more active than MGBG ([9]; SAMDC inhibition in vitro, ref Regenass et al, 1994): approximately 200 fold
IC50 ([9]; as quoted in results and discussion, read-out: IC50 required in in vitro experiments for inhibition of SAMDC): 4.7 nM
IC50 for inhibition of SAMDC as plasma concentration ([9]; as quoted in results): 1.1 ng/mL
IC50 ([9]; in vitro, ref Regenass et al, 1994, read-out: IC50 for SAMDC): 4.7 nM
effect of combination with 5FU and with cisplatin (tumour): Additive to synergistic effects
